Results as given in patent publication US8846566B2, “Composition for controlling plant diseases and method for controlling plant diseases” (Sumitomo Chemical Company, Limited, priority 2008, dated 2014).

Key:
Type in all cases: in vivo
[1] = tested on: Botrytis cinerea, pathogen of gray mold of cucumber; experiment: Test Example 1: foliage application on cucumber, gray mold control (with metconazole); settings: 6 days after inoculation
Text: A plastic pot was filled with sandy soil, and cucumber (Sagamihanjiro) was then disseminated. The cucumber was allowed to grow in a green house for 12 days. A wettable powder of the compound (1b) and a commercially available metconazole formulation (Caramba (registered trademark) produced by BASF) were respectively diluted with water and then tank-mixed so as to prepare tank-mixed liquids containing compound (1b) and metconazole in predetermined concentration. The tank-mixed liquids were subjected to foliage application such that they could be sufficiently adhered to the leaves of the aforementioned cucumber plants. After completion of the foliage application, the plants were air-dried. […] The diameter of infected area on the plants on which the agents had been sprayed was determined as the incidence of disease at the time of checking and the control value was calculated by Equation 1 based on the incidence of disease thus determined.
As a comparison, the respective wettable powders described above were diluted with water in predetermined concentration so as to prepare a compound (1b) liquid and a metconazole liquid respectively and they were subjected to similar disease control test. Besides, in order to calculate the control value, the incidence of disease was also determined in the case in which the plants had not been treated with the agent. […]

[2] = tested on: Rhizoctonia solani, pathogen of brown patch of turf; experiment: Test Example 5: foliage application on turf, brown patch control (with metconazole); settings: 10 days after inoculation
Procedure: Control value=100(A−B)/A “Equation 1”; Generally, the control value expected for the case where the given two kinds of active ingredient compounds are mixed and used for the treatment, the so-called control value expectation is calculated from the following Colby's calculating equation. E=X+Y−(X×Y)/100 “Equation 2”; E: Control value (%) expected for the case in which active ingredient compound A in M ppm, in M g per 100 kg of seeds or in M g per 1 hectare and active ingredient compound B in N ppm, in N g per 100 kg of seeds or in N g per 1 hectare are mixed and used for treatment (hereinbelow referred to as “control value expectation”) “Synergetic effect(%)”=(Actual control value)×100/(Control value expectation) A plastic pot was filled with sandy soil, and turf (Bent grass Penncross) was then disseminated. The turf was allowed to grow in a green house for 20 days. A wettable powder of the compound (1b) and a commercially available metconazole formulation (Caramba (registered trademark) produced by BASF) were respectively diluted with water and then tank-mixed so as to prepare tank-mixed liquids containing the compound (1b) and the metconazole in predetermined concentration. The tank-mixed liquids were subjected to foliage application such that they could be sufficiently adhered to the leaves of the aforementioned turf plants. After completion of the foliage application, the plants were air-dried. Thereafter, bran medium containing mycelium of Rhizoctonia solani, pathogen of brown patch of turf, was sprinkled over the planted area. […] The diameter of infected area on the planted area on which the agents had been sprayed was determined as the incidence of disease at the time of checking and the control value was calculated by the aforementioned Equation 1 based on the incidence of disease determined. […] Besides, in order to calculate the control value, the incidence of disease was also determined in the case in which the plants had not been treated with the agent.

[3] = tested on: Botrytis cinerea, pathogen of gray mold of cucumber; experiment: Test Example 3: foliage application on cucumber, gray mold control (with ipconazole); settings: 6 days after inoculation
Procedure: Control value=100(A−B)/A “Equation 1”;
Generally, the control value expected for the case where the given two kinds of active ingredient compounds are mixed and used for the treatment, the so-called control value expectation is calculated from the following Colby's calculating equation. E=X+Y−(X×Y)/100 “Equation 2”; […]
A plastic pot was filled with sandy soil, and cucumber (Sagamihanjiro) was then disseminated. […] The diameter of infected area on the plants on which the agents had been sprayed was determined as the incidence of disease at the time of checking and the control value was calculated by the aforementioned Equation 1 based on the incidence of disease thus determined.
As a comparison, the respective wettable powders described above were diluted with water in predetermined concentration so as to prepare a compound (1b) liquid and an ipconazole liquid respectively and they were subjected to similar disease control test. Besides, in order to calculate the control value, the incidence of disease was also determined in the case in which the plants has not been treated with the agent.

[4] = tested on: Rhizoctonia solani, pathogen of cucumber damping-off; experiment: Test Example 4: smear treatment of cucumber seeds, damping-off control (with ipconazole); settings: ipconazole alone 1 g/100 kg-seed, seventh day
Procedure: Control value=100(A−B)/A “Equation 1”; Generally, the control value expected for the case where the given two kinds of active ingredient compounds are mixed and used for the treatment, the so-called control value expectation is calculated from the following Colby's calculating equation. E=X+Y−(X×Y)/100 “Equation 2”; E: Control value (%) expected for the case in which active ingredient compound A in M ppm, in M g per 100 kg of seeds or in M g per 1 hectare and active ingredient compound B in N ppm, in N g per 100 kg of seeds or in N g per 1 hectare are mixed and used for treatment (hereinbelow referred to as “control value expectation”) “Synergetic effect(%)”=(Actual control value)×100/(Control value expectation) The results are shown in Table 3. […] They were allowed to grow in a greenhouse while irrigated and the number of non-budding seeds was checked on the seventh day after the dissemination and the incidence of disease was calculated by the aforementioned Equation 3. The control value was calculated by the aforementioned Equation 1 based on the incidence of disease. In order to calculate the control value, the incidence of disease was also determined in the case in which the plants had not been treated with the agent. […]

[5] = tested on: Rhizoctonia solani, pathogen of cucumber damping-off; experiment: Test Example 2: smear treatment of cucumber seeds, damping-off control (with metconazole); settings: metconazole alone 1 g/100 kg-seed, seventh day
Procedure: Control value=100(A−B)/A “Equation 1”; Generally, the control value expected for the case where the given two kinds of active ingredient compounds are mixed and used for the treatment, the so-called control value expectation is calculated from the following Colby's calculating equation. E=X+Y−(X×Y)/100 “Equation 2”; E: Control value (%) expected for the case in which active ingredient compound A in M ppm, in M g per 100 kg of seeds or in M g per 1 hectare and active ingredient compound B in N ppm, in N g per 100 kg of seeds or in N g per 1 hectare are mixed and used for treatment (hereinbelow referred to as “control value expectation”) “Synergetic effect(%)”=(Actual control value)×100/(Control value expectation) Mixed liquids containing an acetone solution of compound (1b) and an acetone solution of metconazole were prepared. These mixed liquids were used for smear treatment of cucumber (Sagamihanjiro) seeds using a rotary seed treatment machine (seed dresser, produced by Hans-Ulrich Hege GmbH) so as to obtain treated seeds. […] They were allowed to grow in a greenhouse while irrigated and the number of non-budding seeds was checked on the seventh day after the dissemination and the incidence of disease was calculated by Equation 3. The control value was calculated by the aforementioned Equation 1 based on the incidence of disease. […]

## CNC(=O)C(OC)c1ccccc1COc1cc(C)ccc1C (racemic) [Compound (1b)]
[1]; compound (1b) alone 0.2 ppm
  Actual control value: 16%
[2]; compound (1b) alone 600 g/ha
  Actual control value: 88%
[3]; compound (1b) alone 0.2 ppm
  Actual control value: 8%

## CC(C)C1CCC(Cc2ccc(Cl)cc2)C1(O)Cn1cncn1 (stereo not drawn) [Ipconazole, ipconazole]
[4]
  Actual control value: 30%
[3]; ipconazole alone 3.1 ppm
  Actual control value: 13%

## CC1(C)CCC(Cc2ccc(Cl)cc2)C1(O)Cn1cncn1 (stereo not drawn) [Metconazole, metconazole]
[1]; metconazole alone 0.8 ppm
  Actual control value: 8%
[2]; metconazole alone 9.4 g/ha
  Actual control value: 63%
[2]; metconazole alone 37.5 g/ha
  Actual control value: 63%
[5]
  Actual control value: 39%
